Reference: patent US20080160106A1, “Novel Uses for Proton Pump Inhibitors” (Istituto Superiore de Sanita, priority 2004, published 2008)
Entries after “also recorded” stand apart in the source; their conditions may differ.

Assays:
human melanoma cells [1] = assay: Cytotoxic effect of omeprazole in vitro, dose response curve (Trypan blue exclusion; Live/Dead assay); type: cell-based; details: 0.01-10 μg/ml
Protocol: Tumour cells: Human tumour cells (24 melanoma cell lines, 2 colon adenocarcinoma cell lines and 2 breast cancer cell lines) obtained from a primary tumour were cultured in buffered (with bicarbonate) or not buffered (without bicarbonate) RPMI 1640 medium enriched with 10% foetal bovine serum and antibiotics in a humidified 5% C02 and 95% air atmosphere.
Dose response curves: Tumour cells, growing in suspension, were plated at 1.5×10^5/ml, in 24 wells cell culture plate (Costar). Tumour cells growing in adherence were plated at 3×10^4 cells/well in 24 wells cell culture plate. Each dilution was tested at least in triplicate in each experiment.
Cytotoxicity assay: Cytotoxicity was evaluated using the Trypan blue exclusion method after treatment with each chemotherapeutic drug. Briefly, after treatment, cells growing in suspension were collected, centrifuged and resuspended in PBS1X. Alternatively, cells growing in adherence were collected, pooling both adherent (live) after trypsinisation and in suspension (assumed dead) cells. […] After 5 minutes, cells were loaded on a haemocytometer (Neubauer) and both live (not stained) and dead (blue stained) cells were counted under a light microscope. Cell viability was assessed calculating the percentage of dead cells using the formula: […]
Live/Dead Viability/Cytotoxicity Assay®. This assay (Molecular Probes, OR, USA) provides a two colour fluorescence cell viability assay that is based on the simultaneous determination of live and dead cells with two probes (Calcein AM and Ethidium homodimer 1) that measure two recognised parameters of cell viability—intracellular esterase activity and plasma membrane integrity. Live cells were distinguished by the presence of ubiquitous intracellular esterase activity, determined by the enzymatic conversion of the virtually non-fluorescent cell permeant Calcein AM to the intensely fluorescent calcein (ex/em 495 nm/515 nm), which is retained in the cell. […] The samples were analysed with a FACScan cytometer (Becton Dickinson) equipped with a 488 argon laser. […]

[2] = system: human melanoma cells resistant to cisplatin; assay: Effects of omeprazole on cisplatin resistance in vitro (cisplatin dose response curve); type: cell-based; details: without cisplatin
Protocol: Cytotoxicity assay: Cytotoxicity was evaluated using the Trypan blue exclusion method after treatment with each chemotherapeutic drug. Briefly, after treatment, cells growing in suspension were collected, centrifuged and resuspended in PBS1X. Alternatively, cells growing in adherence were collected, pooling both adherent (live) after trypsinisation and in suspension (assumed dead) cells. Cells were thus centrifuged (10 minutes at 1500 rpm) and resuspended in PBS1X. An aliquot of the cell suspension was diluted 1:1 (v/v) with 0.4% trypan blue. After 5 minutes, cells were loaded on a haemocytometer (Neubauer) and both live (not stained) and dead (blue stained) cells were counted under a light microscope. Cell viability was assessed calculating the percentage of dead cells using the formula:
% dead cells=(no. dead cells/no. dead cells+no. live cells)×100.
Drugs: The PPIs were as in Example 1, above. Cisplatin (Aventis, France) was resuspended in PBS1X at a stock concentration of 1 mg/ml, and stored at −20° C. Both stock solutions were thawed immediately before use and not frozen again. 5-Fluorouracil (Teva Pharma, Holland) was supplied in the form of a solution at a concentration of 50 mg/ml, and was stored at r.t. as indicated by the supplier. […]

human melanoma cells [3] = assay: In vivo effects of omeprazole and cisplatin on tumour growth in the human/SCID mouse model; parameters: species or system CB.17 scid/scid mice; details: cisplatin alone, single dose 5 mg/kg i.p.
Protocol: Animals: CB.17 SCID/SCID female mice (Harlan, Italy) were used at 4-5 weeks of age and were kept under specific pathogen-free conditions. SCID mice were housed in microisolator cages, and all food, water and bedding were autoclaved prior to use.
Transplantation and growth of human tumours in SCID mice: Each mouse was injected subcutaneously (s.c.) into the right flank with 3×10^6 cells resuspended in 0.2 ml RPMI 1640 supplemented with 10% FCS. After transplantation, the size of each tumour was measured using callipers. The tumour weight was estimated according to Geran et al. (1972) using the formula:
Tumour weight (mg)=length (mm)×width^2 (min)/2.
Mice treatment: Omeprazole (Astra-Zeneca, Italy) and pantoprazole (Sigma Tau) were administered at a dose of 75 mg/kg by gavage as previously described (Watson and Smith, 2001), as a suspension in PBS1X. Lansoprazole (Pharmacia, Sweden) and rabeprazole (Janssen) were administered at a dose of 25 mg/kg by gavage as previously described (Watson and Smith, 2001), as a suspension in PBS1X.
Cisplatin (Aventis, France) was administered intraperitoneally (i.p.) at a dose of 5 mg/kg (Son and Huang 1994).
Other: unless otherwise specified, other parameters are as set out in Examples 1 and 2, above.

| SMILES | cytotoxic effect (% dead cells) (human melanoma cells [1]; buffered neutral medium pH 7.2) | cytotoxic effect (% dead cells) (human melanoma cells [1]; not buffered, slightly acidic medium) | cytotoxic effect of omeprazole alone [2] | tumour growth (human melanoma cells [3]) |
| --- | --- | --- | --- | --- |
| COc1ccc2[nH]c([S+]([O-])Cc3ncc(C)c(OC)c3C)nc2c1 (stereo not shown) [omeprazole] | no apparent cytotoxic effect | cytotoxic in a dose-dependent manner only for tumour cells grown in slightly acidic medium; also recorded: markedly exerted a cytotoxic effect on tumour cells, in a dose-dependent manner | did not exhibit any cytotoxic effect |  |
| N.N.[Cl][Pt][Cl] [cisplatin] |  |  |  | did not show a significant effect on tumour growth; also recorded: almost ineffective if administered alone |
